Values of other authors, collected in patent US7383946B2 (priority 2004, dated 2008).

## [O][Cl+][O-] [Chlorine dioxide, chlorine dioxide]
  concentration at which chlorine dioxide is stable in water and aqueous solutions: approximately 10 g/L
